Key:
NOXs = assay: NADPH oxidase (NOX) activity assay in platelet lysate; format: cell-based, human; conditions: convulxin (5 ng/mL)- and collagen (10 μg/mL)-induced; VAS2870 10 μM
Description: MDA, SOD, GPx, and NADPH oxidase activity were measured as previously described ([Krotz et al., 2002]; [Paul et al., 2019]; [Pan et al., 2021]). After incubation and activation, the reaction was stopped by adding 10 mM EGTA. The platelets were pelleted by centrifugation at 20,000 × g for 10 min at 4°C and resuspended in Tyrode’s buffer with 0.1% phosphatase and protease inhibitors (Cat No. 04906837001, Roche Applied Science, Penzberg, Germany; Cat No. P-8340, Sigma, St. Louis, MO, United States). The platelets were disrupted by passing them 10 times through a 29-gauge needle, followed by centrifugation at 2000 × g for 10 min at 4°C to separate the supernatant and precipitate. The detection of MDA, SOD, and GPx in the supernatant was performed according to the kit’s instructions for SOD (Cat No. BC0170, Solarbio Life Science, Beijing, China), MDA (Cat No. S0131S, Beyotime Institute of Biotechnology, Shanghai, China) and GPx (Cat No. S0056, Beyotime Institute of Biotechnology, Shanghai, China). In order to determine NADPH oxidase (NOX) activity, platelet lysate (12.5 μg) was incubated with 10 µM lucigenin and 0.5 mM NADPH at 37°C in the dark. The absorbance values were detected at 450 nm using a spectrophotometer Multiskan FC (ThermoFisher Scientific Inc., Waltham, MA, United States). Protein content was determined by the Bradford method.

[1] = test system: mesenteric artery thrombosis; assay: Ferric chloride-induced mesenteric thrombosis in mice; format: in vivo, C57BL/6 mice; conditions: luteolin 35 μM/kg or aspirin 0.5 mM/kg i.p., 30 min before FeCl3
Description: A method reported in the literature was used to observe mesenteric artery thrombosis in mice ([Bonnard and […], 2015]). […] The mice were anesthetized by an intraperitoneal injection of pentobarbital (45 mg/kg). They were given an intraperitoneal injection of DMSO, luteolin, or aspirin. They were also given an orbital vein injection of 5 μg/kg rhodamine (Cat No. 83697-250 MG; Sigma-Aldrich, St. Louis, MO, United States) ([Bonnard and […], 2015]), respectively. The mesenteric vessels were exposed by opening the abdominal cavity, and small mesenteric arteries with a diameter of approximately 150-250 μm were selected under the microscope. […] During thrombosis, images were taken every 1 min for the first 10 min and every 5 min after 10 min using an MSHOT MD50 camera (Micro Shot Technology Ltd., Guangzhou, China) and an Olympus ix73 microscope (Olympus Corp., Shinjuku, Japan). […] The size of the thrombus formation was calculated using ImageJ software.

Tail bleeding in mice = format: in vivo, C57BL/6 mice; conditions: luteolin 35 μM/kg or aspirin i.p., 30 min after injection; vs DMSO
Description: The tail break hemorrhage experiment in mice was performed as previously reported, with slight modifications ([Liu et al., 2012]). […] Before the experiment, the mouse tails were immersed in saline for 3 min at 37°C. Then, 30 min after injection, the tails were quickly cut off using a surgical knife blade and placed in saline at 37°C. The cutting site was 5 mm from the end of the tail tip. The bleeding time of the broken tails was observed and recorded.

human washed platelets = assay: Platelet ROS release assay (DCFH-DA); format: cell-based; conditions: luteolin 25 μM, BAY61-3606 63 nM
Description: The assay was performed as previously reported with minor modifications ([Arthur et al., 2012]; [Ye et al., 2020]). Briefly, WPs (500 × 10^9/L) were labeled with 5 μM Fluo-3AM (Cat No. IF0150; Solarbio) or 10 μM DCFH-DA (Cat No. D6883; Sigma, St. Louis, MO, United States) at 37°C for 30 min protected from light. […] In addition, 1 mM CaCl2 and collagen or convulxin were added to start the reaction. […] A ROS probe via a fluorescent enzyme marker was added. O2 ^− and H2O2 were measured using 2 μM Amplex Red (Cat No. ST010; Beyotime Institute of Biotechnology, Shanghai, China) or 2 μM Dihydroethidium (DHE, Cat No. S0063; Beyotime Institute of Biotechnology, Shanghai, China). O2 ^− and H2O2 were analyzed using a Fluoroskan Ascent fluorometer (Thermo Fisher, Waltham, Massachusetts, United States).

c1ccc(Cn2nnc3c(Sc4nc5ccccc5o4)ncnc32)cc1 [VAS2870, reference compound]
NOXs activity (NOXs): significantly decreased

CC(=O)Oc1ccccc1C(=O)O [aspirin, reference compound]
time of clot obstruction of blood vessels [1]: significantly prolong
time of initial thrombus formation [1]: Neither the 0.5 mM/kg aspirin group or 35 μM/kg luteolin group prolonged
tail bleeding time (Tail bleeding in mice): significantly prolonged

COc1ccc(-c2cc3nccn3c(Nc3ncccc3C(N)=O)n2)cc1OC [BAY61-3606, reference compound]
effect on platelet ROS release (human washed platelets; collagen (10 μg/mL)-induced): decreasing levels
effect on platelet ROS release (human washed platelets; convulxin (5 ng/mL)-induced): decreased

Reference: paper PMC10644720 (Frontiers in Pharmacology, 2023)
